Literature values in US20150291756A1, “PROCESS FOR THE PRODUCTION OF RIGID FOAMED OBJECTS MADE OF POLYMER MATERIALS” (priority 2013, published 2015).
Like-named read-outs stand apart in the source and are kept apart here.

Key:
[1] = tested on: human; settings: human inhalative exposure; BASF Risk Assessment study
[2] = recommended by OSHA, ACGIH, NIOSH
[3] = tested on: rats; settings: 4-hour exposure, decomposition residues of the diazocompound (TSMN for AIBN)
[4] = substance as such
[5] = toxicological studies

| Structure (SMILES) | tentative Derived No Effect Level (DNEL) [1] | occupational permissible exposure limit [2] | occupational permissible exposure limit ([2]; equivalent of the ppm value) | Approximate Lethal Concentration Values by inhalation of its residues (ALC) [3] | EU Hazard Classification [4] | carcinogenic and genotoxic activity [5] |
| --- | --- | --- | --- | --- | --- | --- |
| CC(C)(C#N)C(C)(C)C#N [TMSN, 2,2,3,3-tetramethylbutanedinitrile] | 25 μg/m^3 | 0.5 ppm | 3 mg/m^3 | 0.1 mg/L |  |  |
| CCC(C)(C#N)N=NC(C)(C#N)CC (stereo not shown) [AMBN, 2,2′-Azobis(2-methylbutanenitrile)] |  |  |  | 8.7 mg/L | Harmful |  |
| NC(=O)N=NC(N)=O [ADC, Azodicarbonamide] |  |  |  |  |  | carcinogenic and genotoxic activity |
